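Cultured in 96-well plates, cells were exposed to test compound for 48 hours across five concentrations. GI50 = concentration required for 50% inhibition of growth.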 Calls of active or inactive are those of the source. Cut-off read from the data, not from the text of the source: active = GI50 up to about 1.1 µM and inactive = higher.
Assays:
Test in all cases: inhibition of tumour cell growth, NCI panel, 48 h
SK-OV-3 = tested on: SK-OV-3
SNB-19 = tested on: SNB-19
U-251 = tested on: U-251
SN12C = tested on: SN12C
A549 = tested on: A549
MOLT-4 = tested on: MOLT-4
HOP-18 = tested on: HOP-18
NCI-H23 = tested on: NCI-H23
ACHN = tested on: ACHN
SF-539 = tested on: SF-539
K562 = tested on: K562
Malme-3M = tested on: Malme-3M
DMS-114 = tested on: DMS-114
SNB-78 = tested on: SNB-78
RXF 393 = tested on: RXF 393
SR = tested on: SR
CCRF-CEM = tested on: CCRF-CEM
HCT-116 = tested on: HCT-116
HCT-15 = tested on: HCT-15
CAKI-1 = tested on: CAKI-1
UACC-257 = tested on: UACC-257
NCI-H460 = tested on: NCI-H460
HL-60 = tested on: HL-60
HOP-62 = tested on: HOP-62
NCI-H522 = tested on: NCI-H522
SF-295 = tested on: SF-295
SK-MEL-28 = tested on: SK-MEL-28
COLO 205 = tested on: COLO 205
786-0 = tested on: 786-0
M19-MEL = tested on: M19-MEL
SW-620 = tested on: SW-620
SK-MEL-2 = tested on: SK-MEL-2
HT-29 = tested on: HT-29
IGROV-1 = tested on: IGROV-1
DLD-1 = tested on: DLD-1
OVCAR-8 = tested on: OVCAR-8
SF-268 = tested on: SF-268
KM-20L2 = tested on: KM-20L2
OVCAR-5 = tested on: OVCAR-5
UO-31 = tested on: UO-31
SK-MEL-5 = tested on: SK-MEL-5
M14 = tested on: M14
HCC 2998 = tested on: HCC 2998
RPMI-8226 = tested on: RPMI-8226
OVCAR-3 = tested on: OVCAR-3
OVCAR-4 = tested on: OVCAR-4
SNB-75 = tested on: SNB-75
KM12 = tested on: KM12
LXFL 529 = tested on: LXFL 529
DMS-273 = tested on: DMS-273
NCI-H226 = tested on: NCI-H226
EKVX = tested on: EKVX
LOX IMVI = tested on: LOX IMVI
HOP-92 = tested on: HOP-92
A498 = tested on: A498
UACC-62 = tested on: UACC-62
TK-10 = tested on: TK-10

COC1OC(C)C(OC(=O)C(C)(C)C)C(OS(=O)(=O)c2ccc(C)cc2)C1OS(=O)(=O)c1ccc(C)cc1 (centres undefined)
GI50 (SK-OV-3): > 100 µM (inactive) | GI50 (SNB-19): > 100 µM (inactive) | GI50 (U-251): > 100 µM (inactive) | GI50 (SN12C): > 100 µM (inactive) | GI50 (A549): > 100 µM (inactive) | GI50 (MOLT-4): > 100 µM (inactive) | GI50 (HOP-18): > 100 µM (inactive) | GI50 (NCI-H23): > 100 µM (inactive) | GI50 (ACHN): > 100 µM (inactive) | GI50 (SF-539): > 100 µM (inactive) | GI50 (K562): > 100 µM (inactive) | GI50 (Malme-3M): > 100 µM (inactive) | GI50 (DMS-114): > 100 µM (inactive) | GI50 (SNB-78): > 100 µM (inactive) | GI50 (RXF 393): > 100 µM (inactive) | GI50 (SR): 15.4 µM (inactive) | GI50 (CCRF-CEM): > 100 µM (inactive) | GI50 (HCT-116): > 100 µM (inactive) | GI50 (HCT-15): > 100 µM | GI50 (CAKI-1): 5.9 µM (inactive) | GI50 (UACC-257): > 100 µM (inactive) | GI50 (NCI-H460): > 100 µM (inactive) | GI50 (HL-60): > 100 µM (inactive) | GI50 (HOP-62): > 100 µM (inactive) | GI50 (NCI-H522): > 100 µM (inactive) | GI50 (SF-295): > 100 µM (inactive) | GI50 (SK-MEL-28): > 100 µM (inactive) | GI50 (COLO 205): > 100 µM (inactive) | GI50 (786-0): > 100 µM (inactive) | GI50 (M19-MEL): > 100 µM (inactive) | GI50 (SW-620): > 100 µM (inactive) | GI50 (SK-MEL-2): > 100 µM (inactive) | GI50 (HT-29): > 100 µM (inactive) | GI50 (IGROV-1): > 100 µM (inactive) | GI50 (DLD-1): > 100 µM (inactive) | GI50 (OVCAR-8): > 100 µM (inactive) | GI50 (SF-268): > 100 µM (inactive) | GI50 (KM-20L2): > 100 µM (inactive) | GI50 (OVCAR-5): > 100 µM (inactive) | GI50 (UO-31): > 100 µM (inactive) | GI50 (SK-MEL-5): > 100 µM (inactive) | GI50 (M14): > 100 µM (inactive) | GI50 (HCC 2998): > 100 µM (inactive) | GI50 (RPMI-8226): > 100 µM (inactive) | GI50 (OVCAR-3): > 100 µM (inactive) | GI50 (OVCAR-4): > 100 µM (inactive) | GI50 (SNB-75): 77.8 µM (inactive) | GI50 (KM12): > 100 µM (inactive) | GI50 (LXFL 529): > 100 µM (inactive) | GI50 (DMS-273): > 100 µM (inactive) | GI50 (NCI-H226): > 100 µM (inactive)

CCOC(=O)[C@@]12C(C)=CC(=O)O[C@]1(C)C[C@H]2C#N
GI50 (SK-OV-3): > 100 µM (inactive) | GI50 (SNB-19): > 100 µM (inactive) | GI50 (U-251): > 100 µM (inactive) | GI50 (SN12C): > 100 µM (inactive) | GI50 (A549): > 100 µM (inactive) | GI50 (MOLT-4): > 100 µM (inactive) | GI50 (HOP-18): 15.4 µM (inactive) | GI50 (NCI-H23): > 100 µM (inactive) | GI50 (ACHN): > 100 µM (inactive) | GI50 (SF-539): > 100 µM (inactive) | GI50 (K562): > 100 µM (inactive) | GI50 (Malme-3M): > 100 µM (inactive) | GI50 (EKVX): > 100 µM (inactive) | GI50 (DMS-114): > 100 µM (inactive) | GI50 (SNB-78): > 100 µM (inactive) | GI50 (RXF 393): > 100 µM (inactive) | GI50 (LOX IMVI): > 100 µM (inactive) | GI50 (HOP-92): > 100 µM (inactive) | GI50 (CCRF-CEM): > 100 µM (inactive) | GI50 (HCT-116): > 100 µM (inactive) | GI50 (HCT-15): > 100 µM | GI50 (UACC-257): > 100 µM (inactive) | GI50 (NCI-H460): > 100 µM (inactive) | GI50 (HL-60): > 100 µM (inactive) | GI50 (HOP-62): > 100 µM (inactive) | GI50 (SF-295): > 100 µM (inactive) | GI50 (A498): > 100 µM (inactive) | GI50 (SK-MEL-28): > 100 µM (inactive) | GI50 (COLO 205): > 100 µM (inactive) | GI50 (786-0): > 100 µM (inactive) | GI50 (M19-MEL): > 100 µM (inactive) | GI50 (SW-620): > 100 µM (inactive) | GI50 (UACC-62): > 100 µM (inactive) | GI50 (SK-MEL-2): > 100 µM (inactive) | GI50 (HT-29): > 100 µM (inactive) | GI50 (IGROV-1): > 100 µM (inactive) | GI50 (DLD-1): > 100 µM (inactive) | GI50 (OVCAR-8): > 100 µM (inactive) | GI50 (SF-268): > 100 µM (inactive) | GI50 (KM-20L2): > 100 µM (inactive) | GI50 (UO-31): > 100 µM (inactive) | GI50 (SK-MEL-5): > 100 µM (inactive) | GI50 (M14): > 100 µM (inactive) | GI50 (HCC 2998): > 100 µM (inactive) | GI50 (RPMI-8226): > 100 µM (inactive) | GI50 (OVCAR-3): > 100 µM (inactive) | GI50 (OVCAR-4): > 100 µM (inactive) | GI50 (TK-10): > 100 µM (inactive) | GI50 (SNB-75): 20.8 µM (inactive) | GI50 (KM12): > 100 µM (inactive) | GI50 (LXFL 529): > 100 µM (inactive) | GI50 (DMS-273): > 100 µM (inactive) | GI50 (NCI-H226): 50.9 µM (inactive)
